Data taken from PubChem BioAssay (NCI).
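Protocol summary: plate cells (96-well), add compound at 5 concentrations, incubate 48 h, interpolate endpoints linearly. Definition used: TGI = concentration required for complete inhibition of growth.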

Columns and labels:
Test in all cases: growth of human tumour cells (NCI), 48 h
PC-3 prostate = system: PC-3 prostate
HCT-116 colon = system: HCT-116 colon
SW-620 colon = system: SW-620 colon
HOP-92 NSCLC = system: HOP-92 NSCLC
MDA-N = system: MDA-N
TK-10 renal = system: TK-10 renal
HCT-15 colon = system: HCT-15 colon
SF-295 CNS = system: SF-295 CNS
M14 melanoma = system: M14 melanoma
HS 578T breast = system: HS 578T breast
786-0 renal = system: 786-0 renal
SK-OV-3 ovarian = system: SK-OV-3 ovarian
SK-MEL-2 melanoma = system: SK-MEL-2 melanoma
NCI-H23 lung = system: NCI-H23 lung
NCI-H522 lung = system: NCI-H522 lung
KM12 colon = system: KM12 colon
SF-539 CNS = system: SF-539 CNS
SR leukemia = system: SR leukemia
HOP-62 NSCLC = system: HOP-62 NSCLC
LOX IMVI melanoma = system: LOX IMVI melanoma
COLO 205 colon = system: COLO 205 colon
OVCAR-3 ovarian = system: OVCAR-3 ovarian
HL-60(TB) leukemia = system: HL-60(TB) leukemia
CAKI-1 renal = system: CAKI-1 renal
SF-268 CNS = system: SF-268 CNS
NCI-H226 lung = system: NCI-H226 lung
HT29 colon = system: HT29 colon
EKVX NSCLC = system: EKVX NSCLC
UACC-62 melanoma = system: UACC-62 melanoma
IGROV1 ovarian = system: IGROV1 ovarian
BT-549 breast = system: BT-549 breast
MDA-MB-231 breast = system: MDA-MB-231 breast
SNB-19 CNS = system: SNB-19 CNS
MCF7 breast = system: MCF7 breast
RXF 393 renal = system: RXF 393 renal
UO-31 renal = system: UO-31 renal
MDA-MB-435 = system: MDA-MB-435
MALME-3M melanoma = system: MALME-3M melanoma
NCI-H460 lung = system: NCI-H460 lung
ACHN renal = system: ACHN renal
UACC-257 melanoma = system: UACC-257 melanoma
NCI/ADR-RES ovarian = system: NCI/ADR-RES ovarian
SK-MEL-5 melanoma = system: SK-MEL-5 melanoma
CCRF-CEM leukemia = system: CCRF-CEM leukemia
SNB-75 CNS = system: SNB-75 CNS
U251 CNS = system: U251 CNS
OVCAR-4 ovarian = system: OVCAR-4 ovarian
DU-145 prostate = system: DU-145 prostate
A549 NSCLC = system: A549 NSCLC
HCC-2998 colon = system: HCC-2998 colon
MOLT-4 leukemia = system: MOLT-4 leukemia
SN12C renal = system: SN12C renal
K-562 leukemia = system: K-562 leukemia
T-47D breast = system: T-47D breast
A498 renal = system: A498 renal
OVCAR-8 ovarian = system: OVCAR-8 ovarian
OVCAR-5 ovarian = system: OVCAR-5 ovarian
RPMI-8226 leukemia = system: RPMI-8226 leukemia

Which results are given for `COc1ccc(-c2cc(-c3cc(OC)c(OC)c(OC)c3)cc(-c3cc4ccccc4oc3=O)n2)cc1`?
TGI (PC-3 prostate): 76.8 µM; TGI (HCT-116 colon): 18.2 µM; TGI (SW-620 colon): > 100 µM; TGI (HOP-92 NSCLC): 16.8 µM; TGI (MDA-N): 68 µM; TGI (TK-10 renal): 21.1 µM; TGI (HCT-15 colon): > 100 µM; TGI (SF-295 CNS): 19.4 µM; TGI (M14 melanoma): > 100 µM; TGI (HS 578T breast): 7.14 µM; TGI (786-0 renal): 5.34 µM; TGI (SK-OV-3 ovarian): 14.5 µM; TGI (SK-MEL-2 melanoma): 62.2 µM; TGI (NCI-H23 lung): 29.8 µM; TGI (NCI-H522 lung): 34.5 µM; TGI (KM12 colon): > 100 µM; TGI (SF-539 CNS): 7.88 µM; TGI (SR leukemia): > 100 µM; TGI (HOP-62 NSCLC): 5.8 µM; TGI (LOX IMVI melanoma): > 100 µM; TGI (COLO 205 colon): > 100 µM; TGI (OVCAR-3 ovarian): 68.3 µM; TGI (HL-60(TB) leukemia): > 100 µM; TGI (CAKI-1 renal): 17.3 µM; TGI (SF-268 CNS): 16.7 µM; TGI (NCI-H226 lung): 22.2 µM; TGI (HT29 colon): > 100 µM; TGI (EKVX NSCLC): 31.5 µM; TGI (UACC-62 melanoma): 33.6 µM; TGI (IGROV1 ovarian): 24.6 µM; TGI (BT-549 breast): 27.8 µM; TGI (MDA-MB-231 breast): 8.07 µM; TGI (SNB-19 CNS): 37.7 µM; TGI (MCF7 breast): > 100 µM; TGI (RXF 393 renal): 16.1 µM; TGI (UO-31 renal): 24.7 µM; TGI (MDA-MB-435): > 100 µM; TGI (MALME-3M melanoma): 23.9 µM; TGI (NCI-H460 lung): 17.8 µM; TGI (ACHN renal): 16.3 µM; TGI (UACC-257 melanoma): 63.3 µM; TGI (NCI/ADR-RES ovarian): 31.6 µM; TGI (SK-MEL-5 melanoma): 18.6 µM; TGI (CCRF-CEM leukemia): > 100 µM; TGI (SNB-75 CNS): 9.61 µM; TGI (U251 CNS): 12.5 µM; TGI (OVCAR-4 ovarian): 21.4 µM; TGI (DU-145 prostate): 56.1 µM; TGI (A549 NSCLC): 60 µM; TGI (HCC-2998 colon): 80.5 µM; TGI (MOLT-4 leukemia): > 100 µM; TGI (SN12C renal): 49.7 µM; TGI (K-562 leukemia): > 100 µM; TGI (T-47D breast): 26 µM; TGI (A498 renal): 17.6 µM; TGI (OVCAR-8 ovarian): 16.3 µM

Which results are given for `Cc1ccc(Nc2cc(=O)[nH]c(=S)[nH]2)cc1`?
TGI (OVCAR-5 ovarian): > 100 µM; TGI (PC-3 prostate): > 100 µM; TGI (HCT-116 colon): > 100 µM; TGI (SW-620 colon): > 100 µM; TGI (HOP-92 NSCLC): > 100 µM; TGI (MDA-N): > 100 µM; TGI (TK-10 renal): > 100 µM; TGI (HCT-15 colon): > 100 µM; TGI (SF-295 CNS): > 100 µM; TGI (M14 melanoma): > 100 µM; TGI (HS 578T breast): > 100 µM; TGI (786-0 renal): > 100 µM; TGI (SK-OV-3 ovarian): > 100 µM; TGI (SK-MEL-2 melanoma): > 100 µM; TGI (NCI-H23 lung): > 100 µM; TGI (NCI-H522 lung): > 100 µM; TGI (KM12 colon): > 100 µM; TGI (SF-539 CNS): > 100 µM; TGI (SR leukemia): > 100 µM; TGI (HOP-62 NSCLC): > 100 µM; TGI (LOX IMVI melanoma): > 100 µM; TGI (COLO 205 colon): > 100 µM; TGI (OVCAR-3 ovarian): > 100 µM; TGI (HL-60(TB) leukemia): > 100 µM; TGI (CAKI-1 renal): > 100 µM; TGI (SF-268 CNS): > 100 µM; TGI (NCI-H226 lung): > 100 µM; TGI (HT29 colon): > 100 µM; TGI (EKVX NSCLC): > 100 µM; TGI (UACC-62 melanoma): > 100 µM; TGI (IGROV1 ovarian): > 100 µM; TGI (BT-549 breast): > 100 µM; TGI (MDA-MB-231 breast): > 100 µM; TGI (SNB-19 CNS): > 100 µM; TGI (MCF7 breast): > 100 µM; TGI (RXF 393 renal): > 100 µM; TGI (UO-31 renal): > 100 µM; TGI (MDA-MB-435): > 100 µM; TGI (MALME-3M melanoma): > 100 µM; TGI (NCI-H460 lung): > 100 µM; TGI (ACHN renal): > 100 µM; TGI (UACC-257 melanoma): > 100 µM; TGI (RPMI-8226 leukemia): > 100 µM; TGI (NCI/ADR-RES ovarian): > 100 µM; TGI (SK-MEL-5 melanoma): > 100 µM; TGI (CCRF-CEM leukemia): > 100 µM; TGI (SNB-75 CNS): > 100 µM; TGI (U251 CNS): > 100 µM; TGI (OVCAR-4 ovarian): > 100 µM; TGI (DU-145 prostate): > 100 µM; TGI (A549 NSCLC): > 100 µM; TGI (HCC-2998 colon): > 100 µM; TGI (MOLT-4 leukemia): > 100 µM; TGI (SN12C renal): > 100 µM; TGI (K-562 leukemia): > 100 µM; TGI (T-47D breast): > 100 µM; TGI (A498 renal): > 100 µM; TGI (OVCAR-8 ovarian): > 100 µM
